Laboratory results as given in patent publication US6930075B1, “Fatty acid-based herbicidal composition” (priority 1990, dated 2005).

Key:
Assay in all cases: Greenhouse post-emergence spray, plant damage rating
Assay type in all cases: in vivo
Avena sativa (oats) = details: A. sativa, alone and combined
Experimental: (§1) Three species of weed, used in each test: Hypochoeris radicata (false dandelion), Sinapis, arvensis (wild mustard), and Avena sativa (oats), were grown in a greenhouse facility in 5.5 cm square pots using a potting soil mix comprising peat, vermiculite, sand, and 4-10-10 fertilizer. Water-soluble 20-20-20 fertilizer was used as a supplement for the plants as required. The plants were selected for use based on uniformity and quality and were potted separately. One plant per pot each of H. radicata (6–10 leaves) and S. arvensis (4–6 leaves) were used. Six to eight plants of A. sativa (2–4 leaves) were used per pot. After spraying with a herbicidal composition (as described below) the pots were arranged in a randomized complete block design in sub-irrigated watering trays. Six to ten replicates (pots) were used per treatment.
(§2) Herbicidal treatments were applied using a spray chamber fitted with a TeeJet 8006E flat fan nozzle (available from Spraying Systems Co., Wheaton, Ill.), calibrated to spray at a volume of 60 gpa at 40 psi. Treatment solutions were freshly prepared for each experiment. Plant damage was assessed at 10 to 14 days after treatment using a pre-transformed 0–10 rating scale (0 representing no damage, 10 representing plant death) in accordance with the procedure outlined in Statistical Methods in Agricultural Research, Little, T. M. et al, J. Wiley and Sons, 1975, pp. 119–120, 218.

[1] = tested on: Hypochoeris radicata (false dandelion); details: H. radicata, alone and combined
Experimental: as §1, §2

[2] = tested on: Sinapis arvensis (wild mustard); details: S. arvensis, alone and combined
Experimental: as §1, §2

[3] = Table 2 set 1: Round-Up 0.1%, Sodium pelargonate 0.1%
[4] = Table 2 set 2: Round-Up 0.1%, Sodium pelargonate 0.1% (so in the source)
[5] = Table 2 set 3: Round-Up 0.1%, Sodium pelargonate 0.1% (so in the source)

Structure (SMILES): CCCCCCCCC(=O)[O-].[Na+] [Sodium pelargonate]
- Phytotoxicity (%) Observed (Avena sativa (oats); [3]): 0%
- Phytotoxicity (%) Observed (Avena sativa (oats); [4]): 0%
- Phytotoxicity (%) Observed (Avena sativa (oats); [5]): 1%
- Phytotoxicity (%) Observed [1, 3]: 0%
- Phytotoxicity (%) Observed [1, 4]: 0%
- Phytotoxicity (%) Observed [1, 5]: 0%
- Phytotoxicity (%) Observed [2, 3]: 0%
- Phytotoxicity (%) Observed [2, 4]: 0%
- Phytotoxicity (%) Observed [2, 5]: 0%
